Source: the NIST ThermoML archive (doi:10.1021/je800883b)

What was measured:
[1] = 101 kPa, Liquid, Pycnometric method
[2] = xn = mol fraction of the nth substance listed; conditions: 101 kPa, Liquid, Pycnometric method

c1ccccc1 [benzene]
[1]
Conditions	mass density [kg/m3]
303.15 K	868.1
313.15 K	857.4
323.15 K	846.6

c1ccccc1 [benzene] + CCC(C)=O
[2], x2 = 0
Conditions	mass density [kg/m3]
303.15 K	868.1
313.15 K	857.4
323.15 K	846.6

CCC(C)=O [butanone]
[1]
Conditions	mass density [kg/m3]
303.15 K	794.6
313.15 K	784
323.15 K	773.3

CCC(C)=O [butanone] + C1CCCCC1
mass density [kg/m3], [2]
Conditions	x1 = 0.1066	x1 = 0.2093	x1 = 0.3084	x1 = 0.4042	x1 = 0.5064	x1 = 0.6055	x1 = 0.7007	x1 = 0.8015	x1 = 0.907	x1 = 1
303.15 K	768	768.3	769.5	771.3	773.6	776.2	779.8	784	789.6	794.6
313.15 K	758.3	757.4	758.2	759.9	762.4	765.1	769.2	772.7	777.8	784
323.15 K	747.4	746.5	747.3	749.2	751.3	754.4	757.8	761.7	767.2	773.3

CCC(C)=O [butanone] + CCCCCC
mass density [kg/m3], [2]
Conditions	x1 = 0.1057	x1 = 0.2048	x1 = 0.3035	x1 = 0.4071	x1 = 0.5035	x1 = 0.6029	x1 = 0.7042	x1 = 0.8059	x1 = 0.9033	x1 = 1
303.15 K	660	670	680.6	692.9	706	720.7	736.8	754.9	774	794.6
313.15 K	650.4	659	669.5	682	694.7	709.2	725.3	742.9	763	784
323.15 K	639.6	648	658.5	670.4	683.8	698.2	714.2	732.2	752.3	773.3

CCC(C)=O [butanone] + c1ccccc1
mass density [kg/m3], [2]
Conditions	x1 = 0.101	x1 = 0.1999	x1 = 0.2988	x1 = 0.3969	x1 = 0.4996	x1 = 0.5988	x1 = 0.6993	x1 = 0.7931	x1 = 0.8961	x1 = 1
303.15 K	861.2	854.2	847.1	839.9	832.7	825.2	817.5	809.9	802.2	794.6
313.15 K	850.6	843.5	836.6	829.3	822.1	814.6	806.9	799.4	791.7	784
323.15 K	839.9	832.9	825.9	818.7	811.5	803.9	796.4	788.9	781.1	773.3

C1CCCCC1 [cyclohexane]
[1]
Conditions	mass density [kg/m3]
303.15 K	768.9
313.15 K	759.2
323.15 K	748.7

C1CCCCC1 [cyclohexane] + CCC(C)=O
[2], x2 = 0
Conditions	mass density [kg/m3]
303.15 K	768.9
313.15 K	759.2
323.15 K	748.7

CCCCCC [hexane]
[1]
Conditions	mass density [kg/m3]
303.15 K	650.9
313.15 K	641.7
323.15 K	630.9

CCCCCC [hexane] + CCC(C)=O
[2], x2 = 0
Conditions	mass density [kg/m3]
303.15 K	650.9
313.15 K	641.7
323.15 K	630.9
